{"source": "patent US10857146B2", "about": "“Method for preventing or treating tumor diseases with a combination of tyrosine kinase inhibitor and CDK4/6 inhibitor” (Jiangsu Hengrui Medicine Co., Ltd., priority 2018, dated 2020)", "key": {"[1]": {"test_system": "C019 (HER2 inhibitor-sensitive gastric cancer PDX model)", "experiment": "Drug resistance test in HER2 inhibitor-sensitive gastric cancer PDX model (C019)", "format": "in vivo", "conditions": "C019 mice, 40 mg/kg intragastrically once a day", "text": "(§1) A large-scale patient-derived tumor xenograft (PDX) model was constructed with a small amount of advanced gastric cancer tissue obtained by real-time endoscopic biopsy, thereby establishing a PDX tissue library. The PDX tissue was taken from the PDX tissue library, revived and inoculated subcutaneously into the mice. […] The tumor tissue was separated, and re-inoculated into new mice. […] C019 represents the mice one month after subcutaneous inoculation of the revived PDX tissue, S019 represents the mice two weeks after the administration of the compound of formula (I) at a single dose of 20 mg/kg, and R019 represents the mice three months after the administration of the compound of formula (I) in a single dose of 40 mg/kg.\nProtocol of the drug resistance test: the inhibitor group was administrated with the compound of formula (I) (intragastrically, once a day, in a single dose of 40 mg/kg), and the control group was administrated with an equal volume of normal saline. The tumor volume was measured every three days. The result of drug sensitivity of C019 and R019 models is shown in FIG. 1 (average value of five mice)."}, "[2]": {"test_system": "R019 (HER2 inhibitor-resistant gastric cancer PDX model)", "experiment": "Drug resistance test and combination administration in HER2 inhibitor-resistant gastric cancer PDX model (R019)", "format": "in vivo", "conditions": "R019 mice, 40 mg/kg intragastrically once a day"}, "[3]": {"test_system": "advanced gastric cancer PDX tissue", "experiment": "Construction of HER2 inhibitor-resistant PDX model by prolonged administration", "format": "in vivo, mice", "text": "as §1"}}, "data": [{"smiles": "CCOc1cc2ncc(C#N)c(Nc3ccc(OCc4ccccn4)c(Cl)c3)c2cc1NC(=O)/C=C/[C@H]1CCCN1C", "note": "[compound of formula (I)]", "values": [{"measurement": "drug sensitivity of the model", "setting": "[1]", "result": "highly sensitive"}, {"measurement": "tumor inhibition rate", "setting": "[1]; average value of five mice", "result": "> 100", "unit": "%"}, {"measurement": "drug sensitivity of the model", "setting": "[2]", "result": "high resistance"}, {"measurement": "tumor response after prolonged administration", "setting": "[3]; 20 mg/kg intragastrically once a day for three months", "result": "resistance"}, {"measurement": "tumor response after prolonged administration", "setting": "[3]; re-inoculated tumor, 40 mg/kg intragastrically once a day for three months", "result": "complete resistance"}]}]}
